Measured values from US20160120863A1, “SLC2A TRANSPORTER INHIBITORS” (IOMET PHARMA LTD., priority 2013, published 2016).
Like-named read-outs stand apart in the source and are kept apart here.

How the values were obtained:
Type in all cases: cell-based
human GLUT1 = biological target: T1, human GLUT1 (Homo sapiens, UniProt P11166); experiment: [3H]-deoxy-D-glucose uptake assay, GLUT1; details: [3H]-deoxy-D-glucose uptake in HEK293 cells stably expressing human GLUT1
T1 construct: expressed in transfected cells
T1 sequence (P11166 1-492): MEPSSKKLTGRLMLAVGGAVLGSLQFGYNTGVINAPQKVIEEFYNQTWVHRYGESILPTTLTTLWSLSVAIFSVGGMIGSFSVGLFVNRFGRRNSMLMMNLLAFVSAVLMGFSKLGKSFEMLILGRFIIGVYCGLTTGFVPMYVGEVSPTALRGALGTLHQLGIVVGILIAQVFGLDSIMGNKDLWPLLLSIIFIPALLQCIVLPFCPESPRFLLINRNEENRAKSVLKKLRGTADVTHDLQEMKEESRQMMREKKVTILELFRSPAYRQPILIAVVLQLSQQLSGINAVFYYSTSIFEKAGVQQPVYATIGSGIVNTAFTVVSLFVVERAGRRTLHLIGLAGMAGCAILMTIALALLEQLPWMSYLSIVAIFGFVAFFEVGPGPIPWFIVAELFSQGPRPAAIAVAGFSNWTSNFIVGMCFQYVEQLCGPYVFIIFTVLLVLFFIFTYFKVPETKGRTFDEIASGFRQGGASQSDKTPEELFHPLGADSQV
Procedure, shortened: (§1)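 HEK293 cells stably overexpressing human GLUT1 or GLUT2, seeded at 60,000 per well, treated with compounds in glucose-free uptake buffer for 30 min at 37 °C. [3H]-deoxy-D-glucose uptake quantified by scintillation counting after ice-cold PBS washes; IC50 determined.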

A549 cells = experiment: Lactate production assay (lactate secretion, 5 or 17 mM glucose); details: Homo sapiens, 4 hours incubation
Description: A549 cells were grown in DMEM/F12K+L-Glutamine supplemented with 10% foetal bovine serum. Cells were re-suspended in assay media (DMEM without phenol red, pyruvate and glucose, 10% foetal bovine serum, 2 mM L-Glutamine and 5 or 17 mM glucose) and seeded at 40×10^3 cells per well into 96-well plates and incubated overnight. Increasing concentrations of the test compound (compound 155) and vehicle control were added and incubated for 4 hours at 37° C., 5% CO2. Lactate reagent was added (Trinity Biotech), the plates were incubated in the dark for 7 min at room temperature before capturing the absorbance at 540 nm using a plate reader.

[1] = test system: A549 adenocarcinoma NucLight Red cells; experiment: Cell growth (proliferation) assay, NucLight Red, IncuCyte; details: Homo sapiens, AUC analysis of first 24 hours of compound exposure
Description: (§2) A549 adenocarcinoma NucLight Red cells were grown in Ham's F12K medium supplemented with 10% foetal bovine serum, 2 mM Glutamax, 1% pen/strep and 0.5 μg ml-l puromycin. Cells were seeded at 1×10^4 cells per well into 384-well microtitre-plates with media containing 5 mM (FIGS. 3A and 3C) or 17 mM glucose (FIGS. 3B and 3D). The cells were left to adhere before the addition of increasing concentration of test compound (compound 155) and vehicle control. The cells stably expressed Essen CellPlayer NucLight Red Fluorescent Protein to allow measurement of cell proliferation (FIGS. 3 A and B). The culture medium contained Essen CellPlayer 96-well Kinetic Caspase 3/7-reagent and Biotium DEVD-NucView 488 to allow measurement of apoptosis induction (FIGS. 3 C and D). Cells were monitored continuously for 48 hours of compound exposure using Essen IncuCyte.
(§3) pIC50 values for the proliferation and apoptosis assays were derived from area under the curve (AUC) analysis of data from the first 24 hours of compound exposure.

[2] = test system: A549 adenocarcinoma NucLight Red cells; experiment: Apoptosis induction assay, Caspase 3/7 reagent, IncuCyte; details: Homo sapiens, Caspase 3/7, AUC analysis of first 24 hours of compound exposure
Description: as §2, §3

[3] = test system: [3H]-deoxy-D-glucose uptake; experiment: Glucose uptake assay with compound 155 (inhibition of [3H]-deoxy-D-glucose uptake, FIG. 2A); details: read-out: Glucose Uptake pIC50 (converted)
human GLUT2 = biological target: T2, human GLUT2 (Homo sapiens, UniProt P11168); experiment: [3H]-deoxy-D-glucose uptake assay, GLUT2; details: [3H]-deoxy-D-glucose uptake in HEK293 cells stably expressing human GLUT2
T2 construct: expressed in transfected cells
T2 sequence (P11168 1-524): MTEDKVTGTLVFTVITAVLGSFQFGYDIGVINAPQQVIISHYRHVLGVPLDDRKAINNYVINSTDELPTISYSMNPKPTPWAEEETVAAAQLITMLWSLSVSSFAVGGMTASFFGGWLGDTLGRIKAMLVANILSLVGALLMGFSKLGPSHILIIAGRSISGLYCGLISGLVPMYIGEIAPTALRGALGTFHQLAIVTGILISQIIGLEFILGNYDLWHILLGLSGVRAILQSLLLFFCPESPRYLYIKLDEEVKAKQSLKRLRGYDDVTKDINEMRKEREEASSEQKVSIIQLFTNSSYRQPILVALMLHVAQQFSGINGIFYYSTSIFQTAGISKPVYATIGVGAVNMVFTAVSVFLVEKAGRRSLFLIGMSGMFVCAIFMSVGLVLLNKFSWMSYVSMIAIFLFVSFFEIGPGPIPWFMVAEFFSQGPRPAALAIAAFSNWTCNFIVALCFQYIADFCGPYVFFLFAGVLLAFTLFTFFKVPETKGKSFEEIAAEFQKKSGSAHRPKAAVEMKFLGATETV
Procedure, shortened: as §1

human GLUT3 = biological target: T3, human GLUT3 (Homo sapiens, UniProt P11169); experiment: [3H]-deoxy-D-glucose uptake assay, GLUT3; details: [3H]-deoxy-D-glucose uptake in HEK293 cells stably expressing human GLUT3
T3 construct: expressed in transfected cells
T3 sequence (P11169 1-496): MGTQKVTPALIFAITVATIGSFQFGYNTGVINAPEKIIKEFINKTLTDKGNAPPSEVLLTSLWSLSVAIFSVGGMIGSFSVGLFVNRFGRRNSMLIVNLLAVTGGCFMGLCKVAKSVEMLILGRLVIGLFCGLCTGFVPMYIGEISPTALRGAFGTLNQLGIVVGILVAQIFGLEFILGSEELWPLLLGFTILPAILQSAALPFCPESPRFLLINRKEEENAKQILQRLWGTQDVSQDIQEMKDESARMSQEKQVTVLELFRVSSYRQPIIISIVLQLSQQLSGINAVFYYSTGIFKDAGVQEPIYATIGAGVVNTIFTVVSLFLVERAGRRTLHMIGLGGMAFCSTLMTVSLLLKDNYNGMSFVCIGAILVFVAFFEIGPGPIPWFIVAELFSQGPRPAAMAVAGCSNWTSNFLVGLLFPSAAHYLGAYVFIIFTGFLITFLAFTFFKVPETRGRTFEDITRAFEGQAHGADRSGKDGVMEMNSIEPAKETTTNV
Procedure, shortened: (§4)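 HEK293 cells stably overexpressing human GLUT3 or GLUT4, preincubated with compound 30 min at 37 °C in glucose-free HEPES buffer pH 7.4. [3H]-deoxy-D-glucose (125 μM final) uptake then run 30 min at 37 °C, quantified by scintillation counting; IC50 determined.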

human GLUT4 = biological target: T4, human GLUT4 (Homo sapiens, UniProt P14672); experiment: [3H]-deoxy-D-glucose uptake assay, GLUT4; details: [3H]-deoxy-D-glucose uptake in HEK293 cells stably expressing human GLUT4
T4 construct: expressed in transfected cells
T4 sequence (P14672 1-509): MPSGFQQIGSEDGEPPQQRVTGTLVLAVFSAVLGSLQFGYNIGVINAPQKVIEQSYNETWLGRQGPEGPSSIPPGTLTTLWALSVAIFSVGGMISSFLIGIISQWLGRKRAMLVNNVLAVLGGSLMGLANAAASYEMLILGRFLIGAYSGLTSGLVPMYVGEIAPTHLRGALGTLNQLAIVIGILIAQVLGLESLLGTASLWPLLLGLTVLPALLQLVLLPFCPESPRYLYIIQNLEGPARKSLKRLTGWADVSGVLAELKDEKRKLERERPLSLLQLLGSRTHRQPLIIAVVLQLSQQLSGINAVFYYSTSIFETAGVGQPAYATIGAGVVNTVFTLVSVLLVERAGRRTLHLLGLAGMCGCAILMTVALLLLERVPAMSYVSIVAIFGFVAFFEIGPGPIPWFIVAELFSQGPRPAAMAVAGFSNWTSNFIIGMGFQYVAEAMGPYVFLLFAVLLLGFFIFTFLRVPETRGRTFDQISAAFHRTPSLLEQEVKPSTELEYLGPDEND
Procedure, shortened: as §4

GLUT1 pIC50 (human GLUT1)	IC50 (A549 cells; 5 mM glucose, read-out: Lactate Secretion (5 mM glucose) pIC50 (converted)) [nM]	IC50 (A549 cells; 17 mM glucose, read-out: Lactate Secretion (17 mM glucose) pIC50 (converted)) [nM]	IC50 ([1]; 5 mM glucose, read-out: Proliferation (5 mM glucose) pIC50 (converted)) [nM]	IC50 ([1]; 17 mM glucose, read-out: Proliferation (17 mM glucose) pIC50 (converted)) [nM]	IC50 ([2]; 5 mM glucose, read-out: Apoptosis (5 mM glucose) pIC50 (converted)) [nM]	IC50 ([2]; 17 mM glucose, read-out: Apoptosis (17 mM glucose) pIC50 (converted)) [nM]	IC50 [3] [nM]	GLUT2 pIC50 (human GLUT2)	GLUT3 pIC50 (human GLUT3)	GLUT4 pIC50 (human GLUT4)	SMILES
++ (pIC50 5.00-5.99)	–	–	–	–	–	–	–	++ (pIC50 5.00-5.99)	+++ (pIC50 ≧ 6.00)	+++ (pIC50 ≧ 6.00)	CSc1ccc2nc(-c3ccc(Cl)cc3)c(CN3CCN(C(C)=O)CC3)n2c1 [Compound 377]
+++ (pIC50 ≧ 6.00)	–	–	–	–	–	–	–	+− (pIC50 < 4.00)	+++ (pIC50 ≧ 6.00)	+++ (pIC50 ≧ 6.00)	CC(=O)N1CCN(Cc2c(-c3ccc(Cl)cc3)nc3ccc(S(C)(=O)=O)cn23)CC1 [Compound 378]
+++ (pIC50 ≧ 6.00)	–	–	–	–	–	–	–	++ (pIC50 5.00-5.99)	+++ (pIC50 ≧ 6.00)	+++ (pIC50 ≧ 6.00)	CN(c1ccc2nc(-c3ccc(Cl)cc3Cl)c(CN3CCN(C(=O)C(C)(C)O)CC3)n2c1)S(C)(=O)=O [Compound 381]
+++ (pIC50 ≧ 6.00)	–	–	–	–	–	–	–	++ (pIC50 5.00-5.99)	+++ (pIC50 ≧ 6.00)	+++ (pIC50 ≧ 6.00)	CC(=O)N1CCN(Cc2c(-c3ccc(Cl)cc3)nc3ccc(S(=O)(=O)C(C)C)cn23)CC1 [Compound 382]
+++ (pIC50 ≧ 6.00)	–	–	–	–	–	–	–	++ (pIC50 5.00-5.99)	+++ (pIC50 ≧ 6.00)	+++ (pIC50 ≧ 6.00)	CCS(=O)(=O)c1ccc2nc(-c3ccc(Cl)cc3)c(CN3CCN(C(C)=O)CC3)n2c1 [Compound 385]

Continued, molecule first:

SMILES	GLUT1 pIC50 (human GLUT1)	IC50 (A549 cells; 5 mM glucose, read-out: Lactate Secretion (5 mM glucose) pIC50 (converted)) [nM]	IC50 (A549 cells; 17 mM glucose, read-out: Lactate Secretion (17 mM glucose) pIC50 (converted)) [nM]	IC50 ([1]; 5 mM glucose, read-out: Proliferation (5 mM glucose) pIC50 (converted)) [nM]	IC50 ([1]; 17 mM glucose, read-out: Proliferation (17 mM glucose) pIC50 (converted)) [nM]	IC50 ([2]; 5 mM glucose, read-out: Apoptosis (5 mM glucose) pIC50 (converted)) [nM]	IC50 ([2]; 17 mM glucose, read-out: Apoptosis (17 mM glucose) pIC50 (converted)) [nM]	IC50 [3] [nM]	GLUT2 pIC50 (human GLUT2)	GLUT3 pIC50 (human GLUT3)	GLUT4 pIC50 (human GLUT4)
N#Cc1ccccc1-c1ccc2nc(-c3ccc(Cl)cc3)c(CN3CCN(C(=O)c4cccc(F)c4)CC3)n2c1 [Compound 155]	+++ (pIC50 ≧ 6.00)	77.6	398	< 126	380	316	813	25.7	–	–	–
Cn1cc(C(=O)N2CCN(Cc3c(-c4ccc(Cl)cc4Cl)nc4ccc(NS(C)(=O)=O)cn34)CC2)cn1 [Compound 369]	+++ (pIC50 ≧ 6.00)	–	–	–	–	–	–	–	++ (pIC50 5.00-5.99)	+++ (pIC50 ≧ 6.00)	+++ (pIC50 ≧ 6.00)
CN(c1ccc2nc(-c3ccc(Cl)cc3Cl)c(CN3CCN(C(=O)c4ccnnc4)CC3)n2c1)S(C)(=O)=O [Compound 370]	+++ (pIC50 ≧ 6.00)	–	–	–	–	–	–	–	+++ (pIC50 ≧ 6.00)	+++ (pIC50 ≧ 6.00)	+++ (pIC50 ≧ 6.00)
CN(c1ccc2nc(-c3ccc(Cl)cc3Cl)c(CN3CCN(C(=O)C4CCOCC4)CC3)n2c1)S(C)(=O)=O [Compound 372]	+++ (pIC50 ≧ 6.00)	–	–	–	–	–	–	–	+++ (pIC50 ≧ 6.00)	+++ (pIC50 ≧ 6.00)	+++ (pIC50 ≧ 6.00)
CS(=O)(=O)Nc1ccc2nc(-c3ccc(Cl)cc3Cl)c(CN3CCN4C(=O)CCC4C3)n2c1 (stereo not drawn) [Compound 373]	+++ (pIC50 ≧ 6.00)	–	–	–	–	–	–	–	+++ (pIC50 ≧ 6.00)	+++ (pIC50 ≧ 6.00)	+++ (pIC50 ≧ 6.00)
CN(c1ccc2nc(-c3ccc(Cl)cc3Cl)c(CN3CCN4C(=O)CCC4C3)n2c1)S(C)(=O)=O (stereo not drawn) [Compound 374]	+++ (pIC50 ≧ 6.00)	–	–	–	–	–	–	–	+++ (pIC50 ≧ 6.00)	+++ (pIC50 ≧ 6.00)	+++ (pIC50 ≧ 6.00)
